Reference: patent publication US20150306096A1, “8'-HYDROXY-DIHYDROERGOTAMINE COMPOUNDS AND COMPOSITIONS” (MAP Pharmaceuticals, Inc., priority 2012, published 2015)

Legend:
Test in all cases: Radioligand competition binding and kinetics, CHO-K1 membranes
human 5-HT2B receptor = target: T1, human 5-HT2B receptor (Homo sapiens, UniProt P41595); details: 5-HT2B
T1 construct: purchased Euroscreen; host or cells: CHO-K1
Experimental: (§1) For kinetics of radioligand competitive binding, serial dilutions were performed from master solution in 100% DMSO to obtain intermediate concentrations 200-fold higher than the concentrations to be tested. Each test sample was diluted 100-fold in the assay buffer and dispensed into the test plate.
(§2) Ligand: 5-HT (Sigma, H-9523)
(§3) Determination of the Kon constant. Radioligand association kinetics on each receptor were performed by adding in the wells of a 96 well plate 50 μL of radioligand and 50 μL of membrane extracts. The samples were incubated for the times reported in Table 3 below at a temperature optimized for each receptor and filtered over a filter plate. After washing the filters 5 times with 0.5 mL of ice-cold washing buffer, 50 μL of Microscint 20 (Packard) were added to the filters and the plates were incubated 15 min on an orbital shaker and then counted for 1 min/well. This allowed determination of the kobs for each radioligand. Association kinetics were performed at 5 different radioligand concentrations optimized for each receptor (see Table 3 below) to determine 5 different kobs. The different kobs were then plotted against the [radioligand] and the K. was calculated using the following equation: kon=(kobs−koff)[radioligand].
(§4) Determination of the Koff constant. Radioligand dissociation kinetics on each receptor were performed by adding in the wells of a 96 well plate 45 μL of radioligand and 45 μL of membrane extracts. The samples were incubated as reported in Table 4 below at a temperature optimized for each receptor until binding equilibrium was reached as determined by the association kinetics experiment. Then, 100 μL of cold competitor (reference ligand) were added at a 200 fold excess (final concentration) for the times reported in Table 4 at the optimized temperature. The samples were then filtered over a filter plate. After washing the filters 5 times with 0.5 mL of ice-cold washing buffer, 50 μL of Microscint 20 (Packard) were added to the filters and the plates were incubated 15 min on an orbital shaker and then counted for 1 min/well. This allowed determination of the koff for each radioligand.
(§5) Determination of IC50 and Ki constant for each test compound. […] After washing the filters 5 times with 0.5 mL of ice-cold washing buffer, 50 μL of Microscint 20 (Packard) were added to the filters and the plates were incubated 15 min on an orbital shaker and then counted for 1 min/well. […]
(§6) Determination of kon and koff constants for each test compound. Each compound was first assessed in a pilot experiment to evaluate its effect on the kinetic binding of each receptor-radioligand pair. […]

human 5-HT1D receptor = target: T2, human 5-HT1D receptor (Homo sapiens, UniProt P28221); details: 5-HT1D
T2 construct: purchased Euroscreen; host or cells: CHO-K1
T2 sequence (P28221 whole entry): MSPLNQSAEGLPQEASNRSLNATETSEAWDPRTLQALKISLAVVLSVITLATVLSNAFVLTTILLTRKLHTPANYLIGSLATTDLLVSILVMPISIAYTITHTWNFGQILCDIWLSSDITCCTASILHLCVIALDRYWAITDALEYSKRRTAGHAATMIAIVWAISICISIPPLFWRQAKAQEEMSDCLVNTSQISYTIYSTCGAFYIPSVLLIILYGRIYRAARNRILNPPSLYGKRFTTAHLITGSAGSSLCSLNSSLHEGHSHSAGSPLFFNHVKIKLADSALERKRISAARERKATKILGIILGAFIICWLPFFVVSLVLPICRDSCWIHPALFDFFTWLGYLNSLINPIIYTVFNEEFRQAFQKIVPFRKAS
Experimental: as §1
5-HT1D Radioligand Binding Assay
Assay buffer: 50 mM Tris (pH 7.4), 4 mM CaCl2, 0.1% ascorbic acid
Washing buffer: 50 mM Tris (pH 7.4)
Membrane: recombinant CHO-K1-5-HT1D membranes thawed on ice and diluted in assay buffer (10 μg/well)
as §2
Radioligand: [^3H]-CT (Perkin Elmer, TRK1038, diluted in assay buffer for a final concentration of 0.5 nM) Filter plate: GF/B Unifilter plate (Perkin Elmer, 6005177) presoaked in 0.5% PEI for 2 hours at RT.
as §3, §4
Determination of IC50 and Ki constant for each test compound. Radioligand competition binding on each receptor were performed by adding in the wells of a 96 well plate […] of test compound at increasing concentration as reported in Table 5 below, 25 μL of radioligand and 25 μL of membrane extracts. The samples were incubated for 60 min (or 4 hours for a second experiment on 5-HT2B receptors) at a temperature optimized for each receptor and then filtered over a filter plate. After washing the filters 5 times with 0.5 mL of ice-cold washing buffer, 50 μL of Microscint 20 (Packard) were added to the filters and the plates were incubated 15 min on an orbital shaker and then counted for 1 min/well. The test compounds were tested in duplicate at the nanomolar concentrations reported below in Table 5.
Determination of kon and koff constants for each test compound. Each compound was first assessed in a pilot experiment to evaluate its effect on the kinetic binding of each receptor-radioligand pair. These pilot experiments were performed at on compound concentration and were composed of 10 time-points measurements in duplicate (2, 5, 10, 20, 30, 45, 60, 90, 120 and 150 minutes).

human 5-HT1A receptor = target: T3, human 5-HT1A receptor (Homo sapiens, UniProt P08908); details: 5-HT1A
T3 construct: purchased Euroscreen; host or cells: CHO-K1
T3 sequence (P08908 1-422): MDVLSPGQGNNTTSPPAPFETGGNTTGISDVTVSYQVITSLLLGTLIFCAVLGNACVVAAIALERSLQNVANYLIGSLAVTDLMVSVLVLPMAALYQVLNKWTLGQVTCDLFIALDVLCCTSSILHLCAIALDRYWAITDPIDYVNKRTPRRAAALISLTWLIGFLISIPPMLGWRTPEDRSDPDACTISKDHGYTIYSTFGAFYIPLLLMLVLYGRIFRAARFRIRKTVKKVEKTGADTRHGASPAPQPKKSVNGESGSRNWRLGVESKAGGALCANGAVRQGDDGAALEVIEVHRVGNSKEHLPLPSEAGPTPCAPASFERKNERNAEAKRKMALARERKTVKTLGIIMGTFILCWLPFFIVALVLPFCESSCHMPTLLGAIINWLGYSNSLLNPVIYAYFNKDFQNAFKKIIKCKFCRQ
Experimental: as §1
as §3, with “Association kinetics were performed at 5 different radioligand concentrations optimized for each receptor (see Table 3 below) to determine 5 different kobs.” left out
Determination of the Koff constant. […] The samples were incubated as reported in Table 4 below at a temperature optimized for each receptor until binding equilibrium was reached as determined by the association kinetics experiment. […] After washing the filters 5 times with 0.5 mL of ice-cold washing buffer, 50 μL of Microscint 20 (Packard) were added to the filters and the plates were incubated 15 min on an orbital shaker and then counted for 1 min/well. […]
as §5, §6

T1 sequence (P41595 whole entry): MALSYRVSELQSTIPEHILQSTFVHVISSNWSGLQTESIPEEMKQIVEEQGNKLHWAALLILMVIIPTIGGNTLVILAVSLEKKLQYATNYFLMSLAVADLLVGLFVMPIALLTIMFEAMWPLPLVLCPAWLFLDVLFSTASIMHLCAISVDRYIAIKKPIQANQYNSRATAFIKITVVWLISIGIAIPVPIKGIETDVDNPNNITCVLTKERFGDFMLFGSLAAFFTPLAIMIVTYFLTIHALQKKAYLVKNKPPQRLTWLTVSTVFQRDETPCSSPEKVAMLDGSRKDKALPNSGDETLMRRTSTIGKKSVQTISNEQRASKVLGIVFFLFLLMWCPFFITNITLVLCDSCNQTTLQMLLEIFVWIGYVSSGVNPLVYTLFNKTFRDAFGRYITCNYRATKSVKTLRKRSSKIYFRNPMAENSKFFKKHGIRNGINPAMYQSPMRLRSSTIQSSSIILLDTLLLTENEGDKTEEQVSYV

CNS(=O)(=O)Cc1ccc2[nH]cc(CCN(C)C)c2c1 [Sumatriptan, sumatriptan]
Avg Dissociation half-life (human 5-HT2B receptor): 22.2 min
IC50 (human 5-HT2B receptor; [3H]-Mesulergine, read-out: IC50 from binding assay): 19.9 µM
Avg Dissociation half-life (human 5-HT1D receptor): 5.4 min
Avg Dissociation half-life (human 5-HT1A receptor): 65.4 min
